Results as given in patent US9303042B2, “Triazolothienopyrimidine compound inhibitors of urea transporters and methods of using inhibitors” (The Regents of the University of California, priority 2012, dated 2016).
Like-named read-outs stand apart in the source and are kept apart here.

Tests used:
mouse UT-B = molecular target: T1, mouse UT-B (Mus musculus, UniProt Q8VHL0); experiment: Stopped-flow light scattering assay of erythrocyte urea transport, mouse erythrocytes; assay type: cell-based
T1 construct: Screening was performed using mouse erythrocytes, which strongly express UT-B; endogenous in cells; host or cells: erythrocytes in whole blood of wild-type CD1 mice
T1 sequence (Q8VHL0 1-384): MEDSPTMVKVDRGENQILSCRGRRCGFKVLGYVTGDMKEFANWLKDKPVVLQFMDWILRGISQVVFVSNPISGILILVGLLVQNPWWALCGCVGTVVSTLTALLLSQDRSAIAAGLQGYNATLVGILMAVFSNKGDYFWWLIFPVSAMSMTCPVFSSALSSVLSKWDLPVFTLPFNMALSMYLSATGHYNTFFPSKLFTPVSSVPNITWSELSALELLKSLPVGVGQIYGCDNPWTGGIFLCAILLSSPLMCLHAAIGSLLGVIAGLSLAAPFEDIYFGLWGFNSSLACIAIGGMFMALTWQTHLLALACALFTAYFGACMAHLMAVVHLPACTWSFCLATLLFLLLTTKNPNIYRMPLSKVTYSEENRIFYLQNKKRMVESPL
Method: (§1) Erythrocyte urea and water permeabilities were measured by stopped-flow light scattering using a Hi-Tech Sf-51 instrument (Wiltshire, UK). For measurement of urea permeability, dilutions of whole blood (mouse or human) in PBS (hematocrit ˜0.5%) were incubated with test compounds for 5 min and then subjected to a 100-mM inwardly directed urea gradient. After an initial osmotic shrinking phase, the kinetics of increasing cell volume caused by urea influx was measured as the time-course of 90° scattered light intensity at 530 nm, with increasing cell volume producing reduced scattered light intensity. Urea permeability and percentage inhibition were computed as described (see, e.g., Levin et al., FASEB J. supra, 2007)). In some experiments, different urea gradients (25-200 mM) were used, or inhibitor was added only to the erythrocyte-containing or urea-containing solutions. In some experiments an outwardly directed urea gradient was used in which erythrocytes were incubated for 30 min with PBS containing specified urea and mixed in the stopped-flow apparatus with PBS. In reversibility experiments, erythrocytes were incubated for 30 min with inhibitor, washed three times to remove inhibitor, and urea transport assayed. Osmotic water permeability was measured using a 100 mM gradient of sucrose.
UT-B inhibition potency was assayed quantitatively by stopped-flow light scattering from the kinetics of urea influx in response to an inwardly directed urea gradient (see Materials and Methods above). Rapid mixing of an erythrocyte suspension with an equal volume of a hyperosmolar, urea-containing solution to give a 100 mM inwardly directly urea gradient produced rapid cell shrinking due to osmotic water efflux, followed by cell swelling as a consequence of urea (and water) influx.
Measurements were done using a Hi-Tech Sf-51 instrument (Wiltshire, UK). Whole blood (mouse or human) was diluted in PBS (hematocrit approximately 0.5%), incubated with inhibitor for 5 min and then subjected to a 100-mM inwardly directed urea gradient. The kinetics of increasing cell volume caused by urea influx was measured as the time-course of 90° scattered light intensity at 530 nm. Urea permeability and percentage inhibition were computed as described (see, e.g., Levin et al., supra 2007).

AQP1-null erythrocytes = experiment: Erythrocyte osmotic water permeability by stopped-flow light scattering, AQP1-null erythrocytes; assay type: cell-based, mouse; details: 100 mM sucrose gradient, 10 °C
Method: as §1, with “For measurement of urea permeability, dilutions of whole blood (mouse or human) in PBS (hematocrit ˜0.5%) were incubated with test compounds for 5 min and then subjected to a 100-mM inwardly directed urea gradient. After an initial osmotic shrinking phase, the kinetics of increasing cell volume caused by urea influx was measured as the time-course of 90° scattered light intensity at 530 nm, with increasing cell volume producing reduced scattered light intensity.” left out
Erythrocyte osmotic water permeability was measured by stopped-flow light scattering. […] Life Sci. 52:474-78 (2009)).

CCc1ccc(S(=O)(=O)c2nnn3c2nc(NCc2cccs2)c2sccc23)cc1 [UTBinh-14, [3-(4-Ethyl-benzenesulfonyl)-thieno[2,3-e][1,2,3]triazolo[1,5-a]pyrimidin-5-yl]-thiophen-2-ylmethylamine]
mechanism of UT-B inhibition vs urea (mouse UT-B; 0 and 50 nM, urea gradient varied): competitive
reduction of urea transport (mouse UT-B; 100 nM, mouse erythrocytes): approximately 75%
reversibility of UT-B inhibition (mouse UT-B; 100 nM, washout): reversible
inhibition at 1 µM (mouse UT-B; 1 μM): ~100%
urea transport in UT-B null erythrocytes (mouse UT-B; erythrocytes from UT-B knockout mice): did not inhibit
IC50 (mouse UT-B; erythrocytes pre-loaded with 100 mM urea, mixed with urea-free PBS, read-out: IC50 urea efflux): 26.7 nM
IC50 (mouse UT-B; urea influx, 100 mM inwardly directed urea gradient, read-out: IC50 for mouse UT-B): 25.1 nM
water transport in AQP1-null erythrocytes (AQP1-null erythrocytes): inhibited water transport significantly
